# Experimental data published in ChEMBL document CHEMBL1201862, “PubChem BioAssay data set” (2004).
# Activity calls are given as the source filed them.
# Tests used:
# [1] = A549 cell cytotoxicity, dose response, cytotoxicity control, plate reader, cherry-pick, antagonist series (AID 743412); format: functional, cell-based
# [2] = toxicity toward HepG2 liver cells – cell-based, plate reader, cherry-pick, antagonist series, cytotoxicity control, dose response (AID 743416); format: functional
# [3] = inhibition of bursicon-driven LGR2 cAMP signaling – cell-based, HEK293, CRE-luciferase reporter, cherry pick, dose response (AID 743342); format: functional
# [4] = viability loss in HEK293 cells – cell-based, plate reader, cherry-picked samples, cytotoxicity control, dose response (AID 743446); format: functional
# [5] = blockade of melanocortin 4 receptor signaling – cell-based, plate reader, cherry pick, counter-screen for LGR2 antagonist project, dose response (AID 743444); format: functional;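 note: transfected HEK 293 cells stimulated with alpha-MSH peptide; potency of inhibitors of the alpha-MSH evoked signal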
# [6] = Luminescence Cell-Based Dose Confirmation HTS to Identify Activators of 5'UTR Stem-Loop Driven Alpha-Synuclein mRNA Translation in H4 Neuroglioblastoma Cells. [Related pubchem assays: 1829 (Project Summary), 1814 (Primary HTS)]; format: functional
# [7] = target: G-protein coupled receptor 55 (Homo sapiens, UniProt Q9Y2T6); test: inhibition of LPI-stimulated GPR55 beta-arrestin translocation – imaging, U2OS, beta-arrestin-GFP, LPI agonist, primary screen (AID 2013); format: functional;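 note: antagonist potency measured as reduced agonist-driven arrestin aggregation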
# [8] = Luminescence Cell-Based Dose Response HTS to Identify Activators of Luciferase Translation or Activity in H4 […] Cells. [Related pubchem assays: 1829 (Project Summary), 1814 (Primary HTS)]; format: functional
# HEK293 [9] = test: cells; settings: Homo sapiens
# [10] = HGIII-sPLA2 enzyme inhibition potency – biochemical, QFRET, IC50, dose response (AID 743457);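 note: green fluorescence rise as the enzyme cleaves BODIPY PC-A2 in liposomes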
# HEK293 [11] = test: cells; settings: Homo sapiens; remark: listed apart in the source
# [12] = target: T1, Replicative DNA helicase DnaB (Mycobacterium tuberculosis, UniProt P9WMR3); test: DnaB intein splicing inhibitors, dose response, biochemical, cell-free fluorescence (AID 449749); format: functional
# T1 sequence (P9WMR3 whole entry): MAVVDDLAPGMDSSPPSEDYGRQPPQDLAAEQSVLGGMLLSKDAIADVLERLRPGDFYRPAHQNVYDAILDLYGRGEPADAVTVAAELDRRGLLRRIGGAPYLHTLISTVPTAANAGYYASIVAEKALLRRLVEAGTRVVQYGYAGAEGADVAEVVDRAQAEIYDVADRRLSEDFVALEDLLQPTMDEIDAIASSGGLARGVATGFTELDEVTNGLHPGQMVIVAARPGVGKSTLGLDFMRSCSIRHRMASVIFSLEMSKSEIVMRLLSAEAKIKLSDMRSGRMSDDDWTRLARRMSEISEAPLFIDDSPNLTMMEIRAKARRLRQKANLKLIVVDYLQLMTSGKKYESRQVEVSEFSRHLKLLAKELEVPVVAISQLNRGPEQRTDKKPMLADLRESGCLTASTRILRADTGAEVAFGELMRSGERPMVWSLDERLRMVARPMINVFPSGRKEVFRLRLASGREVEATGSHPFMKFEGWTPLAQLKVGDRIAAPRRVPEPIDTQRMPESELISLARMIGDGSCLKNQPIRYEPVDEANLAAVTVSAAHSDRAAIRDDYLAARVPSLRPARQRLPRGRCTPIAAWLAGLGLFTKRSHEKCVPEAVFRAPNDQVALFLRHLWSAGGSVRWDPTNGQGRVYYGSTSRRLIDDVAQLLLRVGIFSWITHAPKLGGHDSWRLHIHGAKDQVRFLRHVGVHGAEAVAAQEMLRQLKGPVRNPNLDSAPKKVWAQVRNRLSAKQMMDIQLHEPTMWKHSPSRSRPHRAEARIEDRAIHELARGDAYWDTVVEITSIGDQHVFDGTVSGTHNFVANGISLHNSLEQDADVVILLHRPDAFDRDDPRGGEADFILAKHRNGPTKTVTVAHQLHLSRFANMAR
# H4 = test: Luminescence Cell-Based Dose Response HTS to Identify Activators of 5'UTR Stem-Loop Driven Prion Protein mRNA Translation in H4 Neuroglioblastoma Cells. [Related pubchem assays: 1829 (Project Summary), 1814 (Primary HTS)]; format: functional; settings: Homo sapiens
# Protein RecA = target: T2, Protein RecA (Mycobacterium tuberculosis, UniProt P9WHJ3); test: Fluorescence Cell-Free Homogeneous Dose Retest to Identify Inhibitors of RecA-Intein Splicing Activity. [Related pubchem assays (depositor defined):AID2097, AID2223, AID489010, AID492950]; format: functional
# T2 sequence (P9WHJ3 whole entry): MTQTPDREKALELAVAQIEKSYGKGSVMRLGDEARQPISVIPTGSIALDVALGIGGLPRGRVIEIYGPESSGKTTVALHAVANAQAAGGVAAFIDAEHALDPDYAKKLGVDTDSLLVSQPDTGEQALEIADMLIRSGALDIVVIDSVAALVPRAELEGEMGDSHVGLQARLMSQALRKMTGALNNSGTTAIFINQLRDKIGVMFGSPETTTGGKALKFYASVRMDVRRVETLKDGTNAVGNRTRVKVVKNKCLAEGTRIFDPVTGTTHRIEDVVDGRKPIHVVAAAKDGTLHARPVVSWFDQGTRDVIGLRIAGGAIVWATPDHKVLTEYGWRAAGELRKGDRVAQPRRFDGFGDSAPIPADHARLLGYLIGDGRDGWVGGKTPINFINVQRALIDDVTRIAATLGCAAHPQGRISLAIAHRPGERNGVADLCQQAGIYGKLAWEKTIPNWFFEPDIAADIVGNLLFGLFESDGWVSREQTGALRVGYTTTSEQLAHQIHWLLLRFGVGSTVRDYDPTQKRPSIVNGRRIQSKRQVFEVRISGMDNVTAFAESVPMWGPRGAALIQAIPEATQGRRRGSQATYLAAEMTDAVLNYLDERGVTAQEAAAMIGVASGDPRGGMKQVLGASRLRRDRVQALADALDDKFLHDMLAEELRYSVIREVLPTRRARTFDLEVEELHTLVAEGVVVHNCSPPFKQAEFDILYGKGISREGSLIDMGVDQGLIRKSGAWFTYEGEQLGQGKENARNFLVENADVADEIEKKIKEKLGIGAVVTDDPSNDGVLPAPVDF
# [13] = blockers of HIV-1 ZM109 envelope-driven cell-cell fusion – HeLa effector, CEM target cells, luciferase, cherry-pick, dose response (AID 652058); format: functional, cell-based;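 note: luciferase signal from HIV-1 Env mediated cell-cell fusion of effector and target cells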
# [14] = HIV-1 AD8 envelope cell-cell fusion blockers – cherry-pick, dose response (AID 652062); format: functional, cell-based;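 note: luciferase signal from cell-cell fusion driven by HIV-1 clade B AD8 Env; potency is for inhibitors of fusion seen as a drop in luminescence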
# [15] = blockers of HIV-1 envelope-mediated cell-cell fusion – cherry-pick, dose response (AID 652057); format: functional, cell-based
# [16] = target: Fructose-bisphosphate aldolase (Mycobacterium tuberculosis, UniProt P9WQA3); test: Fluorescence-based biochemical high throughput dose response assay for inhibitors of the fructose-bisphosphate aldolase (FBA) of M. tuberculosis.; format: functional
# cells = format: functional, cell-based
# [17] = target: Nuclear receptor subfamily 0 group B member 1 (Homo sapiens, UniProt P51843); format: functional, cell-based;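 note: HEK293T cells transfected with SF-1 and DAX-1 plus StAR promoter luciferase reporter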
# Nuclear receptor subfamily 0 group B member 1, sequence (P51843 whole entry): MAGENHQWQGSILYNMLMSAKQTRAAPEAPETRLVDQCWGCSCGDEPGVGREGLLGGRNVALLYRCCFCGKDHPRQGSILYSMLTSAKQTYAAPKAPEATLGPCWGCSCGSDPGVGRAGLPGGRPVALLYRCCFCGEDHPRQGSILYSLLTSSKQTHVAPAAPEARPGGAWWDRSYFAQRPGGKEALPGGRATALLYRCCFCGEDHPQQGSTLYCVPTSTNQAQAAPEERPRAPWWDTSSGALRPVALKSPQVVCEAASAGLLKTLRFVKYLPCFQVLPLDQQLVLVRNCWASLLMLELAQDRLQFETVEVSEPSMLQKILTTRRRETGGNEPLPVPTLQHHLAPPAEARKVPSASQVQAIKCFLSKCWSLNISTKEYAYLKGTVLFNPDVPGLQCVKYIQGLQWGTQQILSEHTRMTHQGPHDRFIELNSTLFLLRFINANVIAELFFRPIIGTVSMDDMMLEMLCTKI
# Fructose-bisphosphate aldolase, sequence (P9WQA3 whole entry): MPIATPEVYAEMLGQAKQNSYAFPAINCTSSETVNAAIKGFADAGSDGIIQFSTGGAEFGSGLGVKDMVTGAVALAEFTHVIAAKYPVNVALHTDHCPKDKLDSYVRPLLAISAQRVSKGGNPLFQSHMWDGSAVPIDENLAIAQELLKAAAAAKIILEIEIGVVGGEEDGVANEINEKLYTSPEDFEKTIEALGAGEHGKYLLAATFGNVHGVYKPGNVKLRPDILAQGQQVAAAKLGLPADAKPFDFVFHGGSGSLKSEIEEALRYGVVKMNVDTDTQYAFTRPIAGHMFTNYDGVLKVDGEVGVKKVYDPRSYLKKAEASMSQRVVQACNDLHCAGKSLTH
# G-protein coupled receptor 55, sequence (Q9Y2T6 whole entry): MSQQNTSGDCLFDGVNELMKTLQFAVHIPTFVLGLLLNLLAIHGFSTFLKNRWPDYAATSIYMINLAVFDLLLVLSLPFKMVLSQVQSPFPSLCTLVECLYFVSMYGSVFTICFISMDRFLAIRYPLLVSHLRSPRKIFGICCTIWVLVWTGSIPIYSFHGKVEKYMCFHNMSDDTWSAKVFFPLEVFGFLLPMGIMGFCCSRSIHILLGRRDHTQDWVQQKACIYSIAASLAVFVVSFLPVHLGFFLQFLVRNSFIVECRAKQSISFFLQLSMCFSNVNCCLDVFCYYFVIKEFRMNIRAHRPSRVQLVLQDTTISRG
smiles,measurement,setting,value
C[C@@H]1CN([C@@H](C)CO)C(=O)c2cc(NC(=O)c3ccncc3)ccc2O[C@@H](C)CCCCO[C@H]1CN(C)C(=O)Nc1cccc2ccccc12,AC50,[1],14.3 µM (active)
same,AC50,[2],17.1 µM (active)
same,AC50,[3],2.91 µM (active)
same,AC50,[4],17.1 µM (active)
same,AC50,[5],9.74 µM (active)
C[C@H](CO)N1C[C@H](C)[C@H](CN(C)C(=O)Nc2cccc3ccccc23)OCCCC[C@H](C)Oc2ccc(NC(=O)NC3CCCCC3)cc2C1=O,AC50,[3],4.13 µM (active)
same,AC50,[5],45.6 µM (active)
CCOC(=O)c1c(CSC(=N)N)n(-c2ccccc2)c2cc(Br)c(OC(C)=O)cc12,EC50,[6],> 120 µM (not active)
same,IC50,[7],3.23 µM (active)
same,EC50,[8],9.69 µM (active)
same,EC50,HEK293 [9],> 59.6 µM (inactive)
same,IC50,[10],> 122 µM (inactive)
same,EC50,HEK293 [11],> 59.6 µM (inactive)
same,AC50,[12],5.9 µM (active)
same,EC50,H4,> 120 µM (not active)
same,EC50,Protein RecA,9.76 µM (active)
C[C@@H]1CN([C@@H](C)CO)C(=O)Cc2cc(NS(=O)(=O)c3cccs3)ccc2O[C@H]1CN(C)Cc1ccc(Cl)c(Cl)c1,AC50,[13],< 0.26 µM (active)
same,AC50,[14],0.486 µM (active)
same,AC50,[15],9.27 µM (active)
COCCCNC(=S)NCCCNc1nc2cc3c(cc2cc1C#N)OCO3,IC50,[16],1.2 µM (active)
C/C(=N/NC(=O)c1ccoc1C)c1cccc(NC(=O)C(F)(F)F)c1,IC50,cells,> 67.5 µM (inactive)
same,IC50,[17],> 67.5 µM (inactive)
CN(C)c1ccc(/C=N\NC(=O)CC#N)cc1,IC50,[16],> 1.11 µM (active)
